Test systems include NCI-H460 lung; NCI-H226 lung; BT-549 breast; NCI-H522 lung; U251 CNS; HCT-15 colon; MDA-MB-435; PC-3 prostate; SF-295 CNS; MALME-3M melanoma.
Holding throughout (assay): growth of human tumour cells (NCI), 48 h

Values joined by “and” are separate entries in the source; they are usually repeats but may differ in a detail not shown here. Equal values may be shown once.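 Protocol summary: plate cells (96-well), add compound at 5 concentrations, incubate 48 h, interpolate endpoints linearly. GI50: concentration for 50% inhibition of growth. Definition used: TGI = concentration required for complete inhibition of growth.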 Bounds are passed on as bounds.

In the case of `CC1=C/C(O)CC(=O)Cc2nc(co2)C(=O)N2CCC=C2C(=O)OC(C(C)C)C(C)/C=C\C(=O)NC/C=C\1` (stereo unspecified), the GI50 in the test on NCI-H460 lung is 17.8 µM; in the test on NCI-H226 lung it was > 46.3 µM; in the test with NCI-H522 lung it was 15.2 µM; in the test with U251 CNS it was 24.8 µM; in the test on HCT-15 colon, 28.8 µM; with MDA-MB-435 it was 20.3 µM. Besides, the GI50 with PC-3 prostate is 65.4 µM; in the test on SF-295 CNS, 22.3 µM; in the test with MALME-3M melanoma, 23.1 µM. Further, the TGI in the test on NCI-H460 lung is 58 µM and > 100 µM; with NCI-H226 lung, > 100 µM; in the test with BT-549 breast, > 47.9 µM and 51.6 µM; in the test with NCI-H522 lung, > 65.6 µM and 11.8 µM; in the test on U251 CNS, > 100 µM; in the test with HCT-15 colon, > 89.5 µM and 46.6 µM. The TGI in the test with MDA-MB-435 is > 94.2 µM and 80.4 µM; in the test with PC-3 prostate, > 100 µM; with SF-295 CNS it was > 100 µM; with MALME-3M melanoma it was > 65.9 µM and 25.2 µM.
`CCCC(CCC)Oc1ccc(CCCC2=C(O)c3ccccc3C(=O)C2=O)cc1`: the GI50 was 3.03 µM in the test with NCI-H460 lung; 4.24 µM in the test on NCI-H226 lung; 8.74 µM in the test on BT-549 breast; 5.75 µM in the test with NCI-H522 lung; 5.37 µM in the test with U251 CNS; 3.76 µM in the test with HCT-15 colon. For the same molecule, the GI50 with MDA-MB-435 was 4.72 µM; in the test on PC-3 prostate, 3 µM; with SF-295 CNS, 2.1 µM; in the test with MALME-3M melanoma, 7.53 µM. Besides, the TGI in the test with NCI-H460 lung was determined as 11.1 µM; in the test with NCI-H226 lung, 20.8 µM; with BT-549 breast, 20.9 µM; in the test with NCI-H522 lung it was 22.2 µM; in the test on U251 CNS it was 17.5 µM; in the test on HCT-15 colon, 15 µM. Besides, the TGI in the test with MDA-MB-435 turned out to be 17.6 µM; with PC-3 prostate, 15.7 µM; in the test with SF-295 CNS, 10.4 µM; in the test on MALME-3M melanoma, 23.5 µM.
`CN(N=O)C(=O)Nc1ccc(C(=O)O)cc1`: the TGI in the test on NCI-H460 lung, in the test on NCI-H226 lung, with BT-549 breast, with NCI-H522 lung, with U251 CNS and with HCT-15 colon was > 100 µM each time. Besides, the TGI in the test with MDA-MB-435, in the test with PC-3 prostate and in the test on SF-295 CNS was > 100 µM throughout.
As to `C=C1[C@@H](O)C[C@H]2C(C)(C)C[C@H](Cl)C[C@]2(C)[C@H]1C[C@H](O)[C@H]1CC(=O)NC1=O`, the GI50 in the test on NCI-H460 lung is < 0.01 µM; in the test on NCI-H226 lung, 0.0218 µM; in the test on BT-549 breast, 0.0265 µM; in the test on NCI-H522 lung, < 0.01 µM; in the test on U251 CNS, < 0.01 µM; in the test on HCT-15 colon it was 0.0255 µM. Moreover, the GI50 in the test on MDA-MB-435 is 0.016 µM; with PC-3 prostate it was 0.0174 µM; in the test with SF-295 CNS, < 0.0123 µM; in the test with MALME-3M melanoma, < 0.01 µM. The TGI amounted to 0.29 µM in the test on NCI-H460 lung; 0.19 µM with NCI-H226 lung; 0.155 µM in the test on BT-549 breast; 0.0293 µM in the test on NCI-H522 lung; 0.108 µM in the test with U251 CNS; 0.596 µM in the test with HCT-15 colon. Further, the TGI in the test on MDA-MB-435 was found to be 0.312 µM; with PC-3 prostate, 0.264 µM; with SF-295 CNS, 0.0748 µM; in the test with MALME-3M melanoma, 0.0632 µM.
In the case of `c1ccc2c(-c3cnn4cc(-c5ccc(N6CCNCC6)cc5)cnc34)ccnc2c1`, the GI50 was 0.216 µM with NCI-H460 lung; 1.65 µM with NCI-H226 lung; 1.6 µM with BT-549 breast; 1.5 µM in the test with NCI-H522 lung; 0.278 µM in the test with U251 CNS; 0.325 µM in the test with HCT-15 colon. Further, the GI50 in the test with MDA-MB-435 was 0.556 µM; in the test on PC-3 prostate, 0.316 µM; in the test on SF-295 CNS, 1.13 µM; in the test on MALME-3M melanoma, 1.34 µM. Moreover, the TGI stood at 0.525 µM in the test on NCI-H460 lung; 3.59 µM with NCI-H226 lung; 3.13 µM in the test on BT-549 breast; 2.9 µM in the test with NCI-H522 lung; 1.08 µM in the test with U251 CNS; 1.45 µM in the test on HCT-15 colon. The TGI with MDA-MB-435 came out at 1.91 µM; in the test with PC-3 prostate, 1.52 µM; in the test with SF-295 CNS, 2.48 µM; in the test on MALME-3M melanoma, 2.92 µM.
Turning to `Cc1[nH]c(=O)nc(N/N=C/c2ccc(Cl)cc2)c1C(=O)Nc1ccc(Cl)cc1`, the TGI in the test with NCI-H460 lung is 39.7 µM; in the test on NCI-H226 lung, > 100 µM; in the test on BT-549 breast, > 100 µM; in the test on NCI-H522 lung, 64.1 µM; in the test on U251 CNS, 23.5 µM; with HCT-15 colon, > 100 µM. Besides, the TGI is > 100 µM in the test on MDA-MB-435, > 100 µM with PC-3 prostate, 43.4 µM with SF-295 CNS and 55.2 µM in the test on MALME-3M melanoma.
Regarding `Cc1ccc(N(/C=C/C(=O)C(F)(F)F)CC(=O)c2ccc(Cl)c(Cl)c2)cc1`, the GI50 in the test with NCI-H460 lung was 8.73 µM; in the test with NCI-H226 lung it was 14.9 µM; in the test on BT-549 breast it was 2.22 µM; in the test with NCI-H522 lung, 5.16 µM; in the test on U251 CNS, 10.7 µM; in the test on HCT-15 colon it was 3.64 µM. In addition, the GI50 in the test on MDA-MB-435 was 1.92 µM; with PC-3 prostate it was 7.06 µM; in the test with SF-295 CNS, 4.24 µM; in the test on MALME-3M melanoma, 6 µM. In addition, the TGI in the test on NCI-H460 lung worked out at 21 µM; in the test on NCI-H226 lung, 28.7 µM; in the test on BT-549 breast, 11.2 µM; in the test with NCI-H522 lung it was 17.8 µM; in the test with U251 CNS it was 22.6 µM; in the test with HCT-15 colon, 14.5 µM. The TGI in the test on MDA-MB-435 is 3.82 µM; with PC-3 prostate it was 20 µM; in the test with SF-295 CNS, 16.6 µM; with MALME-3M melanoma, 20.6 µM.
`Cc1cccc2c(N=Nc3ccccc3[N+](=O)[O-])c(O)[nH]c12`: the TGI in the test with NCI-H460 lung is 30.6 µM; in the test with NCI-H226 lung, > 39.7 µM; in the test with BT-549 breast, > 74.1 µM; in the test on NCI-H522 lung, 2.85 µM; in the test with U251 CNS it was 7.68 µM; with HCT-15 colon it was 97.7 µM. Besides, the TGI with MDA-MB-435 is > 100 µM; in the test with PC-3 prostate it was 38.4 µM; in the test with SF-295 CNS, 28.3 µM.
Regarding `C=C(CN(C)Cc1ccccc1)c1ccc(C(=O)Nc2ccccc2N)cc1`, the GI50 with NCI-H460 lung was 19.9 µM; in the test on BT-549 breast, 1.48 µM; in the test with U251 CNS, 3.34 µM; in the test with HCT-15 colon, 2.2 µM; in the test on MDA-MB-435, 1.42 µM; in the test with PC-3 prostate it was 4.95 µM. Besides, in the test on SF-295 CNS, the GI50 is 5.4 µM. Further, the TGI in the test with NCI-H460 lung was > 50 µM; in the test with BT-549 breast, 10.1 µM; with U251 CNS it was 13.8 µM; in the test on HCT-15 colon, 12.2 µM; with MDA-MB-435, 5.7 µM; with PC-3 prostate, > 50 µM. The same molecule returned a TGI with SF-295 CNS of 16.7 µM.
